In patent US11840546B2, “Imidazopyridazine compounds and uses thereof” (Incyte Corporation, priority 2020, dated 2023):

Legend:
ALK2 (aa 147-end) = ALK2 (aa 147-end) (Homo sapiens (Human), UniProt Q04771); assay: ALK2 HTRF Assay; format: biochemical; conditions: HTRF enzymatic assay, 3 μM ATP, 0.5 nM ALK2, 25° C., 2 hr
Experimental: ALK2 (aa 147-end) was obtained from BPS biosciences. The enzymatic assays were conducted in white 384-well polystyrene plates in a final volume of 8 μL. The inhibitors were serially diluted in DMSO and added to the plate wells prior to addition of the other reaction components. The assays were carried out at 25° C. in the assay buffer (50 mM HEPES, pH 7.0, 10% Glycerol, 0.01% Brij50, 10 mM MgCl2, 1 mM EGTA, 5 mM DTT, and 0.01% BSA), containing 50 nM LANCE Ultra ULight™-DNA Topoisomerase 2-alpha peptide (Perkin Elmer TRF0130), and 3 μM ATP. The final concentration of DMSO in the assay was […] and the enzyme concentration was 0.5 nM for ALK2. The reactions were allowed to proceed for 2 hr for ALK2 after which, the reaction was quenched by addition of EDTA at a final concentration of 20 mM along with 1.5 nM LANCE Ultra Europium-anti-phospho-DNA Topoisomerase 2-alpha (Thr1342) antibody (Perkin Elmer TRF0218). The reaction was incubated at 25° C. for 1 hr and read on a PHERAstar FS plate reader (BMG Labtech). IC50 determination was performed by fitting percent control activity versus the log of the inhibitor concentration using the IDBS XLFit and GraphPad Prism 5.0 software.

ALK2 mutant DIPG cell = conditions: ALK2 mutant DIPG cells; cited from earlier work

ALK2 (aa 147-end), sequence (Q04771 147-509 limits assumed): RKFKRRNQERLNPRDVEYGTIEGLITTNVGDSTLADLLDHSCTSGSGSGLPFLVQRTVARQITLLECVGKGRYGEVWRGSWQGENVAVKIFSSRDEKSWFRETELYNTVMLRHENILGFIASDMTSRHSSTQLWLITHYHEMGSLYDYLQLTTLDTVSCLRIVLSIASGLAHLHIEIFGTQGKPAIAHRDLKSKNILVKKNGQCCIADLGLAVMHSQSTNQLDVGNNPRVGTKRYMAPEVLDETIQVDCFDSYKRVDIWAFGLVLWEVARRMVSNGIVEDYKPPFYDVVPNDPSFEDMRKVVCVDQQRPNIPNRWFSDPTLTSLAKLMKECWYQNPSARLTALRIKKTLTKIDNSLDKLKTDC

| IC50 (ALK2 (aa 147-end)) [nM] | SMILES | inhibition of ALK2 mutant DIPG cell viability (ALK2 mutant DIPG cell) |
| --- | --- | --- |
| ≤ 1 | Cc1cnn(-c2ccc3c(-c4cnc5cc(-c6ccc(CN7CC8CCC7CC8)cc6)c(C)nn45)ccnc3n2)n1 [Example 3, 2-(4-(6-Methyl-3-(7-(4-methyl-2H-1,2,3-triazol-2-yl)-1,8-naphthyridin-4-yl)imidazo[1,2-b]pyridazin-7-yl)benzyl)-2-azabicyclo[2.2.2]octane] | – |
| – | c1ccc2c(-c3cnn4cc(-c5ccc(N6CCNCC6)cc5)cnc34)ccnc2c1 [LDN-19318917] | significant inhibition |
| ≤ 1 | Cc1cnn(-c2ccc3c(-c4cnc5cc(-c6ccc([C@]78C[C@H]7CN(C7CCOCC7)C8)cc6)c(C)nn45)ccnc3n2)n1 (stereo in doubt) [Example 4, 2-(4-Methyl-2H-1,2,3-triazol-2-yl)-5-(6-methyl-7-(4-((1S,5R)-3-(tetrahydro-2H-pyran-4-yl)-3-azabicyclo[3.1.0]hexan-1-yl)phenyl)imidazo[1,2-b]pyridazin-3-yl)-1,8-naphthyridine] | – |
| ≤ 1 | CCn1cnc(-c2ccc3c(-c4cnc5cc(-c6ccc([C@@]78C[C@@H]7CN(C7CCOCC7)C8)cc6)c(C)nn45)ccnc3n2)c1 [Example 1, 2-(1-Ethyl-1H-imidazol-4-yl)-5-(6-methyl-7-(4-((1R,5S)-3-(tetrahydro-2H-pyran-4-yl)-3-azabicyclo[3.1.0]hexan-1-yl)phenyl)imidazo[1,2-b]pyridazin-3-yl)-1,8-naphthyridine] | – |
| ≤ 1 | CCn1cnc(-c2ccc3c(-c4cnc5cc(-c6ccc(CN7CC8CCC7CC8)cc6)c(C)nn45)ccnc3n2)c1 [Example 2, 2-(4-(3-(7-(1-Ethyl-1H-imidazol-4-yl)-1,8-naphthyridin-4-yl)-6-methylimidazo[1,2-b]pyridazin-7-yl)benzyl)-2-azabicyclo[2.2.2]octane] | – |
